By melting point is commonly meant the temperature, or range, at which the solid turns liquid. With `CON(CCCc1c(Cl)cc(Cl)cc1Cl)C(=O)c1cn(C)nc1C(F)F` [Compound 2.040, 3-difluoromethyl-1-methyl-1H-pyrazole-4-carboxylic acid methoxy-[3-(2,4,6-trichloro-phenyl)-propyl]-amide], the melting point is 95 to 96 °C.
`CCON(C(=O)c1cn(C)nc1C(F)F)C(C)Cc1c(Cl)cc(Cl)cc1Cl` (centres unmarked) [Compound 1.032, 3-difluoromethyl-1-methyl-1H-pyrazole-4-carboxylic acid ethoxy-[1-methyl-2-(2,4,6-trichlorophenyl)-ethyl]-amide] displayed a melting point of 111 to 114 °C.

For the origin of these results see patent US8258169B2, “Pyrazole-4-N-alkoxycarboxamides as microbiocides” (Syngenta Crop Protection, LLC, priority 2008, dated 2012).
